Experimental data published in ChEMBL document CHEMBL1949542, “Reductive activation of 5-fluorodeoxyuridine prodrug possessing azide methyl group by hypoxic X-irradiation” (Bioorg Med Chem Lett, 2012).
Calls of active or inactive are those of the source. The calls are words filed in the database; no cut-off is given here.

Legend:
Format in all cases: functional, cell-based
[1] = system: A549; test: Cytotoxicity against human A549 cells assessed as cell viability under hypoxic condition at 100 nM after 72 hrs by WST-8 assay
[2] = system: A549; test: Cytotoxicity against human A549 cells assessed as cell viability at 200 nM compound X-irradiated under aerobic conditions measured after 72 hrs by WST-8 assay
[3] = system: A549; test: Cytotoxicity against human A549 cells assessed as cell viability after 72 hrs by WST-8 assay; conditions: A549, 72 h
[4] = system: A549; test: Cytocidal activity against human A549 cells assessed as cell viability at 200 nM compound X-irradiated under hypoxic conditions measured after 72 hrs by WST-8 assay

| Compound | Activity [1] | Activity [2] | IC50 [3] [nM] | Activity [4] |
| --- | --- | --- | --- | --- |
| [N-]=[N+]=NCn1c(=O)c(F)cn([C@H]2C[C@H](O)[C@@H](CO)O2)c1=O | inactive | inactive | 1470 | inactive |
| O=c1[nH]c(=O)n([C@H]2C[C@H](O)[C@@H](CO)O2)cc1F [FLOXURIDINE] |  |  | 47 |  |
